Test system: biosensor expressing cells (HEK293T)
Type: cell-based, human

With Cholera Toxin the “biosensors that respond in some way to the single drug treatment” value was greater than 80%.

— patent US20240102991A1, “Synthetic Fluorescent Protein Biosensors and Use Thereof in Drug Screening Methods” (The Regents of the University of Colorado, a body corporate, priority 2017, published 2024)
